Data as given in patent US9393250B2, “Phthalocyanine compounds useful as RecA inhibitors and methods of using same” (University of Saskatchewan, priority 2012, dated 2016).
Counter-ions that a name gives are not always drawn.

Columns and labels:
[1] = test system: SOS response (E. coli strain SS996); assay: SOS induction, GFP regulated by the sulA SOS promoter, flow cytometry; assay type: cell-based, Escherichia coli; conditions: KAN 43 μM, CAM 46 μM, TET 21 μM, SPECT 808 μM; three hours
Procedure: To confirm that the bactericidal antibiotic potentiating activity of 4,4-Fe-PcTs was correlated with reduced SOS induction, SOS induction in the E. coli strain SS996 was monitored. This strain contains a green fluorescent protein (GFP) regulated by the sulA SOS promoter.
SS996 cultures were grown to an optical density at 600 nm (OD600) of 0.3. For cultures treated with 4,4-Fe-PcTs, the 4,4-Fe-PcTs was added to give a concentration of 25 μM and the culture was incubated for three hours at 37° C. Antibiotics were then added to yield concentrations of 2.5 μM (CFX), 40 μM (AMP), 43 μM (KAN), 21 μM (TET), 46 μM (CAM), or 808 μM (SPECT). Samples (˜10^6 cells) were taken immediately before the addition of antibiotics (time zero) and every hour for three hours. Samples were washed once in PBS, and resuspended in PBS prior to analysis by flow cytometry. GFP expression was monitored using flow cytometer (Beckman Coulter, Inc.) with a 488 nm argon laser and a 515-545 nm emission. Flow cytometry data were analyzed using Flowjo (Tree Star, Inc.).

[2] = test system: bacteria / ΔrecA bacterial strain; conditions: cited from earlier work
[3] = test system: Pseudomonas aeruginosa ATCC27853; assay: Antibiotic sensitivity assay (CFUs/ml), P. aeruginosa; assay type: cell-based; conditions: ciprofloxacin 6.5 μM
Procedure: (§1) Bacterial cultures were diluted to 10^5 cells/mL in LB broth (ATCC25922) or MH broth (ATCC27853, ATCC29212, ATCC29213). Antibiotics and/or phthalocyanines were added at indicated concentrations and the culture was incubated at 37° C. Samples were collected at 0, 24, 48, and 72 hours and plated on LB agar (ATCC25922) or tryptic soy blood agar (ATCC27853, ATCC29212, ATCC29213) to determine CFUs/ml.
To confirm that the activity of 4,4-Fe-PcTs was not specific to the gram-negative ATCC25922 E. coli, the ability of 4,4-Fe-PcTs to potentiate the activity of ciprofloxacin in another gram-negative (Pseudomonas aeruginosa ATCC27853) strain and two gram-positive (Staphylococcus aureus ATCC29213 and Enterococcus faecalis ATCC29212) strains was evaluated.

[4] = test system: ATCC25922 E. coli; assay: Ciprofloxacin resistance assay and reconstruction assay (in vitro mutagenesis); assay type: cell-based, Escherichia coli
Procedure: An in vitro mutagenesis assay [1] was used to measure the ability of 4,4-Fe-PcTs to block the acquisition of ciprofloxacin-induced resistance in ATCC25922 E. coli. ATCC25922 cells were plated on media containing ciprofloxacin in the presence or absence of 4,4-Fe-PcTs and cultured for 10 days. Colonies that appeared early in the assay (days 1 and 2) are believed to arise from pre-existing ciprofloxacin resistance mutations [1]. Colonies that appear later in the incubation (days 3 to 8) are due to ciprofloxacin resistance mutations acquired during exposure to ciprofloxacin or pre-existing mutations with a slow growth phenotype [1].
To distinguish between these two types of mutants, a reconstruction assay that tests for the time it takes for colonies to appear in the presence of ciprofloxacin was used. Colonies that appear at least two days faster than they appeared in the original ciprofloxacin mutagenesis screen were classified as colonies that acquire resistance after exposure to ciprofloxacin [1]. Colonies that appeared in the same number of days as in the ciprofloxacin resistance assay were classified as colonies with pre-existing mutations [1].
Twenty-five independent colonies of ATCC2592 were used to inoculate 25 LB broth cultures that were incubated at 37° C. for 25 hours. Viable cell counts in these cultures were determined by plating serial dilutions onto LB agar plates. One hundred microliters from each culture (˜10^8 cells) were plated in duplicate on LB agar containing ciprofloxacin (CFX) (40 nM) or ciprofloxacin (40 nM) and 4,4-Fe-PcTs (25 μM) (CFX+4,4-Fe-PcTs). Three additional 100 μL aliquots from three cultures were also plated on the same media to determine the number of viable cells per day. At 24 hour intervals, visible colonies were counted, removed from the plate, and stored at −80° C. for later use in the reconstruction assay and sequencing. Every 24 hours, in parallel with the resistance assay, small plugs of agar between visible colonies were excised from resistance assay plates. Agar plugs were homogenized in M9 buffer. Dilutions were plated in duplicate on LB plates to determine the total number of viable cells per day. The cells were also plated on LB containing CFX (40 nM) to determine if any CFX-resistant colonies remained after excision [1].
Reconstruction assays were used to determine whether ciprofloxacin resistant colonies were due to post-exposure mutation or due to mutation prior to ciprofloxacin exposure. Ciprofloxacin resistant clones isolated from the resistance assay were grown to saturation in LB media in 96 well plates. Cultures were then replica-plated in duplicate using a 96-pin replicator on LB plates to confirm viability and LB plates containing ciprofloxacin (40 nM) to confirm ciprofloxacin resistance. Ciprofloxacin-resistant clones that were isolated in the presence 4,4-Fe-PcTs were replica plated on LB and LB containing 4,4-Fe-PcTs (25 μM) and ciprofloxacin (40 nM). Clones that were resistant before ciprofloxacin exposure were defined as clones that formed colonies on the ciprofloxacin-containing media in the same number of days in the reconstruction assay as in the original resistance assay. Clones that mutated after exposure to ciprofloxacin were defined as clones that formed colonies earlier than in the original resistance assay [1].
The rate of ciprofloxacin resistance was defined as the number of ciprofloxacin-resistant mutants per viable cell that evolve as a function of time. […]

[5] = test system: ATCC25922 cells; assay: Neutropenic murine bacterial thigh infection model; assay type: in vivo, Escherichia coli; conditions: mice treated only with ciprofloxacin 1 mg/kg s.c.; after 72 hours of infection
Procedure: Six-eight week-old, specific-pathogen-free, female CD-1 mice (weight, 25-35 g) were rendered neutropenic by intraperitoneal injection with 150 mg/kg cylcophosphamide (Sigma) four days before infection and 100 mg/kg cyclophosphamide 24 hours before infection. LB broth cultures inoculated from fresh ATCC25922 colonies and cells were grown to the log phase (OD600 of approximately 0.3) and diluted 1:1000 in LB broth. Thigh infections were produced by injecting 50 μl (approximately 10^6 CFUs) of diluted cultures into halothane-anesthetized mice. One group of mice was administrated inteperitoneal injection of 4,4-Fe-PcTs in conjunction with the second dose of cyclophosphamide (24 hours prior infection) (4,4-Fe-PcTs (pre)+CFX). Starting two hours after infection (defined as time zero), mice were administered subcutaneous injections of either 1 mg/kg ciprofloxacin alone (CFX) or co-treatment of 1 mg/kg ciprofloxacin with interperitoneal injection of 10 mg/kg 4,4-Fe-PcTs (4,4-Fe-PcTs+CFX and 4,4-Fe-PcTs (pre)+CFX) every 24 hours for 3 days. After 48 and 72 hours, three mice from each group were sacrificed, and their thighs removed and homogenized to determine the number of viable bacterial cells for both ciprofloxacin-sensitive and ciprofloxacin-resistant ATCC25922 cells. Serial dilutions of homogenates of the infected thigh were plated on LB agar (CFX Sensitive) and LB agar plates containing ciprofloxacin (40 nM) (CFX Resistant) to count viable cells for each of the three treatment groups.

[6] = test system: E. coli strain ATCC25922; assay: Antibiotic sensitivity assay (CFUs/ml), E. coli; assay type: cell-based, Escherichia coli; conditions: for decrease in CFUs relative to ciprofloxacin treatment alone: compound 25 μM + ciprofloxacin 40 nM
Procedure: as §1
The ability of 4,4-Fe-PcTs and 3,4-Cu-PcTs to potentiate the activity of ciprofloxacin (abbreviated “CFX”) was tested. Ciprofloxacin inhibits DNA gyrase in bacteria, causing accumulation of double-stranded DNA breaks (DSBs) and inducing the SOS response. The inventors characterized the ability of 4,4-Fe-PcTs and 3,4-Cu-PcTs to potentiate the activity of ciprofloxacin in the pathogenic E. coli strain ATCC25922, which was used previously by Cirz et al. to evaluate the role of SOS response proteins in antibiotic resistance.

[7] = molecular target: DltA (Bacillus cereus, UniProt Q81G39); assay: DltA control for specificity of ATPase inhibition; assay type: biochemical; conditions: DltA assayed in the presence of 3,4-Cu-PcTs
Sequence of DltA (Q81G39 whole entry): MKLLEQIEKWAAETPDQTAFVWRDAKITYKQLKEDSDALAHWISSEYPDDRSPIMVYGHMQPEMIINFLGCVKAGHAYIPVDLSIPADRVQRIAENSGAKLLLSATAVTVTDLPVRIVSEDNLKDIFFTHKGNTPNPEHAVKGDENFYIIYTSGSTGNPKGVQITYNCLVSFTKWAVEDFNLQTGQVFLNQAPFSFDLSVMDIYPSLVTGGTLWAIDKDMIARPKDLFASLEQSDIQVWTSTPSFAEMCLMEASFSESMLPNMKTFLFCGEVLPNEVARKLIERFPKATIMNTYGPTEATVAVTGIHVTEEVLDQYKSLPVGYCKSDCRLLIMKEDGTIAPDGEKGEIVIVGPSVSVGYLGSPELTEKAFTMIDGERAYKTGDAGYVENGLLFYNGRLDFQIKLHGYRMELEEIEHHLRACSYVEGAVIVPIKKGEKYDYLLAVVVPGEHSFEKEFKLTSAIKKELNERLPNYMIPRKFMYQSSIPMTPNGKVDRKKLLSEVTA
From the text: DltA catalyzes the breakdown of ATP into AMP and pyrophosphate, which is further broken down by yeast pyrophosphatase into phosphate for quantification. Results are the average of two independent experiments where the deviation was less than 10%.

[8] = molecular target: T1, EcRecA (Escherichia coli, UniProt P0A7G6); conditions: gel shift; 0, 10, 100 μM
T1 sequence (P0A7G6 whole entry): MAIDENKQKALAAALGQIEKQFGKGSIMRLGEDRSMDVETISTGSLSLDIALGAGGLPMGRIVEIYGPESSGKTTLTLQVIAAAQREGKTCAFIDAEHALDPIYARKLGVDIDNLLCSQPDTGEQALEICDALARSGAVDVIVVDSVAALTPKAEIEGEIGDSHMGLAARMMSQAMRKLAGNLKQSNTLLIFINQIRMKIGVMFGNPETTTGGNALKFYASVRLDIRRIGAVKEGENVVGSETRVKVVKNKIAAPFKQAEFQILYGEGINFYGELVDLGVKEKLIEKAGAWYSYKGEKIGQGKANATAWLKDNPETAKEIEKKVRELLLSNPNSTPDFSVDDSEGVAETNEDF
Procedure: EcRecA (4 μM), a 1.0-kb double-stranded DNA (dsDNA) PCR product (12 μM in base pairs), and indicated concentrations of 4,4-Fe-PcTs or 3,4-Cu-PcTs were incubated in binding buffer (5 mM MgAc2, 50 mM Tris-Hepes at pH 7.6) for 10 minutes at 37° C. EcRecA bound (slower migrating) and unbound dsDNA were resolved using a 1.0% agarose gel. The gel was stained with ethidium bromide and the fluorescence emission in the gel was recorded using a Kodak GelLogic 200 system.

[9] = molecular target: T1, EcRecA; conditions: in presence of ATPγS
Procedure: EcRecA (5 μM) was incubated with indicated concentrations of 4,4-Fe-PcTs or 3,4-Cu-PcTs in strand exchange buffer (2 mM ATP-γ-S(Sigma-Aldrich), 10 mM MgAc2, 100 mM KAc, 50 mM Hepes-Tris buffer at pH 7.6, 0.1% v/v 2-mercaptoethanol) for 10 minutes at 37° C. FAM43 (0.35 μM) was added and the reaction was incubated for 2 minutes. The reaction was started by the addition of 0.35 μM of the dsDNA substrate (annealing product of equimolar oligonucleotides 45A and 55A). The reaction was stopped at 30 minutes by adding EDTA to a final concentration of 20 mM and trypsin to a final concentration of 1 μg/μl. After 10 minutes, 10 μl of the reaction was mixed with 5 μl of loading buffer (30% glycerol and 0.1% bromophenol blue) and products were resolved using a 20% native acrylamide gel. The fluorescence emission in the gel was recorded using a Kodak GelLogic 200 system.

[10] = molecular target: EcRecA / EcLexA (Escherichia coli, UniProt P0A7G6); conditions: in presence of ATPγS
Sequence of EcRecA / EcLexA (P0A7G6 whole entry): as above
Procedure: The LexA cleavage reaction (10 μl) contained 1 μM poly-(dT)45, 2 μM EcRecA, 10 μM EcLexA, 0.1 mM ATP-γ-S, 20 mM MgAc2, 50 mM Hepes-Tris at pH 7.6 and indicated concentrations of 4,4-Fe-PcTs or 3,4-Cu-PcTs. The reaction was incubated for 120 minutes at 21° C. and stopped by the addition of 5 μl of loading buffer (30% glycerol, 10% SDS, 0.2 M Tris-HCl at pH 6.8, 0.1% v/v 2-mercaptoethanol and 0.1% w/v bromophenol blue). The products were resolved using a 13% SDS-polyacrylamide gel. The proteins were stained with Coomassie Blue-R250.

[11] = molecular target: T2, RecA (Escherichia coli, UniProt P0A7G6)
Procedure: RecA (5 μM) and 3,4-Cu-PcTs (50 μM) were incubated in 0.15 M NaCl and 0.05 M Tris-HCl buffer at pH 7.4. The protein complexes were resolved by loading 2 ml of RecA/3,4-Cu-PcTs on a Pharmacia sephacryl S-300 column pre-equilibrated with the running buffer. The size exclusion column was calibrated with standard proteins with molecular weights of 35, 67, and 167 KD. Elution of proteins off the size exclusion column was monitored using absorbance at 280 nm.
Target sequence in this assay (P0A7G6 whole entry): as above

[12] = molecular target: T1, EcRecA; conditions: compound 10 μM; poly-(dT)36-stimulated; relative to reaction without inhibitor
Procedure: An ATPase assay [18] was used to screen a set of commercially available anionic, aromatic molecules for inhibitors of RecA ATPase activity. The release of inorganic phosphate by ATP hydrolysis was monitored using a Malachite Green phosphate assay [18]. The ssDNA-dependent ATPase reaction contained 1 μM EcRecA, 6 μM ssDNA (poly-(dT)36, concentration in nucleotides), 5 mM ATP, 50 mM Tris-Hepes buffer at pH 7.4, 10 mM MgCl2, 0.1% v/v 2-mercaptoethanol, and indicated amounts of 4,4-Fe-PcTs or 3,4-Cu-PcTs. Phosphate levels were measured by transferring 25 μl of ATPase reaction to 475 μl of malachite green phosphate assay, which contained 0.033% w/v Malachite Green, 1.3% w/v ammonium molybdate. 1.0 M HCl was used to monitor the release of inorganic phosphate by ATP hydrolysis [18]. The green complex formed between Malachite Green, molybdate, and free orthophosphate was measured by recording the absorbance at 620 nm.
Results are the average of two independent experiments where the deviation was less than 10%.

[13] = molecular target: T1, EcRecA; conditions: gel shift; 0, 10, 100 μM; remark: listed apart in the source
[14] = molecular target: T2, RecA; conditions: 3,4-Cu-PcTs 3.75 μM; RecA 3.5 μM; AMPPNP
Target sequence in this assay (P0A7G6 2-353): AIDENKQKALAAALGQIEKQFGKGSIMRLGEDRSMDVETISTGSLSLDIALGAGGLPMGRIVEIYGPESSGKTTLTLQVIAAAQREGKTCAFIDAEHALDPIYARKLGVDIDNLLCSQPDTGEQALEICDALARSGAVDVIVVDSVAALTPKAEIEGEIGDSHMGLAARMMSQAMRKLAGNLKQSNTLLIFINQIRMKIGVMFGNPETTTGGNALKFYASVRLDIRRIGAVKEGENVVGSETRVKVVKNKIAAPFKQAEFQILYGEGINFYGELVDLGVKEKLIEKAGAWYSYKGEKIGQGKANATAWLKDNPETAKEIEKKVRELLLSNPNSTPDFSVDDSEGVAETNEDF
Procedure: RecA-dsDNA-AMPPNP complexes formed by incubating RecA (3.5 μM), calf thymus dsDNA (Sigma) at a 40 dsDNA:1 RecA ratio (w/w), AMP-PNP (adenosine 5′-(β,γ-imido)triphosphate) (Sigma) (1.3 mM), MgAc2 (Sigma) (2 mM), triethanolamine-HCl (Fisher) buffer (25 mM, pH 7.2) with or without 3,4-Cu-PcTs (3.75 μM) at 37° C. for 10 minutes. Samples were applied to carbon-coated grids and stained with 2% uranyl acetate (w/v). Images were recorded on film with a Tecnai 12 electron microscope operating at 80 keV with a nominal magnification of 30,000×. Negatives were scanned with a Nikon Coolscan 8000 densitometer at a raster of 4.2 Å/pixel.

[15] = molecular target: MvRadA (Methanococcus voltae, UniProt O73948); conditions: cited from earlier work
Sequence of MvRadA (O73948 whole entry): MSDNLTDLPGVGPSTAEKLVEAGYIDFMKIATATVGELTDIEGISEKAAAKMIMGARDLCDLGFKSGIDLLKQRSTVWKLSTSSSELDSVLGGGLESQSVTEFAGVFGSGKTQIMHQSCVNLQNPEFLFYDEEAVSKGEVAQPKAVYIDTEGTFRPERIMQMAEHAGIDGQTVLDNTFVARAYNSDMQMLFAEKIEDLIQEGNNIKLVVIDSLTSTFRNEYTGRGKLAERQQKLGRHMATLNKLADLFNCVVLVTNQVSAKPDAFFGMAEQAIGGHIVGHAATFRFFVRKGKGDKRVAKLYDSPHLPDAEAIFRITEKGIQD

[16] = molecular target: T2, RecA; conditions: cited from earlier work
Target sequence in this assay (P0A7G6 2-353): as the sequence (P0A7G6 2-353) above

Compound: NC[C@H]1O[C@H](O[C@H]2[C@H](O)[C@@H](O[C@H]3O[C@H](CO)[C@@H](O)[C@H](N)[C@H]3O)[C@H](N)C[C@@H]2N)[C@H](O)[C@@H](O)[C@@H]1O [Kanamycin, kanamycin monosulfate]
- induction of SOS-GFP reporter by antibiotic alone [1]: did not induce the SOS-GFP reporter

Compound: CO[C@H]1/C=C/O[C@@]2(C)Oc3c(C)c(O)c4c(O)c(cc(O)c4c3C2=O)NC(=O)/C(C)=C\C=C\[C@H](C)[C@H](O)[C@@H](C)[C@@H](O)[C@@H](C)[C@H](OC(C)=O)[C@@H]1C [Rifamycin, rifamycin]
- SOS response and killing of bacteria ([2]; bacteria with RecA): activates the SOS response, but does not kill bacteria
- activity in ΔrecA bacterial strain ([2]; ΔrecA bacterial strain): shows bactericidal activity

Compound: O=C(N[C@H](CO)[C@H](O)c1ccc([N+](=O)[O-])cc1)C(Cl)Cl [chloramphenicol]
- induction of SOS-GFP reporter by antibiotic alone [1]: only very low levels of GFP expression

Compound: O=C(O)c1cn(C2CC2)c2cc(N3CCNCC3)c(F)cc2c1=O [ciprofloxacin, ciprofloxacin hydrochloride, reference compound]
- sensitivity of ATCC27853 to ciprofloxacin compared with gram-positive strains [3]: less sensitive to ciprofloxacin than the two gram-positive strains
- ciprofloxacin-resistant cells over time ([4]; cells treated with only ciprofloxacin): spike in ciprofloxacin-resistant cells at day 5
- ciprofloxacin-resistant colonies caused by pre-existing mutations ([4]; ciprofloxacin-alone (40 nM)): 29%
- ciprofloxacin-resistant cells in thigh [5]: Approximately 50,000 cells

Compound: CN[C@@H]1[C@H](O)[C@H](NC)[C@H]2O[C@@]3(O)C(=O)C[C@@H](C)O[C@H]3O[C@@H]2[C@H]1O [spectinomycin, spectinomycin dihydrochloride]
- induction of SOS-GFP reporter by antibiotic alone [1]: only very low levels of GFP expression

Compound: aluminum (III) phthalocyanine chloride tetrasulfonic acid [Al-PcTs]
- decrease in CFUs relative to ciprofloxacin treatment alone ([6]; 24 hours): ~100 fold

Compound: copper phthalocyanine-3,4′,4″,4′″-tetrasulfonic acid tetrasodium salt [3,4-Cu-PcTs]
- specificity of ATPase inhibition (DltA control) [7]: specific for inhibiting RecA ATPase activity
- potentiation of ciprofloxacin activity ([6]; ciprofloxacin 40 nM): potentiated the activity of ciprofloxacin
- colony forming units (CFUs) ([6]; co-treated with ciprofloxacin 40 nM and compound at concentrations above 25 μM): no colony forming units (CFUs) were observed
- CFUs ([6]; compound 25 μM plus ciprofloxacin 40 nM, 24 hours): no CFUs were observed
- inhibition of RecA dsDNA-binding activity [8]: in the micromolar range
- inhibition of DNA strand-exchange [9]: inhibited
- inhibition of LexA cleavage [10]: inhibited
- effect on molecular weight (oligomeric state) of RecA complex ([11]; 3,4-Cu-PcTs 50 μM, RecA 5 μM): reduced the molecular weight of the RecA complex to a size consistent to the RecA ring-shaped hexamer storage complex
- elution size of 3,4-Cu-PcTs/RecA complex ([11]; pre-incubation with 3,4-Cu-PcTs 50 μM, RecA alone eluted near the void volume): ~200 KD
- inhibition of EcRecA ATPase activity [12]: high degree of inhibition
- inhibition of RecA ssDNA-binding activity [13]: in the micromolar range
- effect on RecA filament formation [14]: inhibited

Compound: copper phthalocyanine-tetrasulfonic acid [Cu-PcTs]
- decrease in CFUs relative to ciprofloxacin treatment alone ([6]; 24 hours): ~100 fold

Compound: metatungstate (W12O40^6−)
- MvRadA ATPase, DNA-binding, and DNA strand-exchange activities [15]: inhibited
- inhibition of RecA activity within E. coli cells [16]: unable to inhibit

Compound: nickel (II) phthalocyanine-tetrasulfonic acid [Ni-PcTs]
- decrease in CFUs relative to ciprofloxacin treatment alone ([6]; 24 hours): ~100 fold

Compound: phthalocyanine tetrasulfonic acid [H-PcTs]
- decrease in CFUs relative to ciprofloxacin treatment alone ([6]; 24 hours): ~100 fold

Compound: zinc (II) phthalocyanine tetrasulfonic acid [Zn-PcTs]
- decrease in CFUs relative to ciprofloxacin treatment alone ([6]; 24 hours): ~100 fold
